This is an account of results in article PMC3704662, “Synthesis, docking and acetylcholinesterase inhibitory assessment of 2-(2-(4-Benzylpiperazin-1-yl)ethyl)isoindoline-1,3-dione derivatives with potential anti-Alzheimer effects” (DARU Journal of Pharmaceutical Sciences, 2013).

T1 sequence (O42275 24-633): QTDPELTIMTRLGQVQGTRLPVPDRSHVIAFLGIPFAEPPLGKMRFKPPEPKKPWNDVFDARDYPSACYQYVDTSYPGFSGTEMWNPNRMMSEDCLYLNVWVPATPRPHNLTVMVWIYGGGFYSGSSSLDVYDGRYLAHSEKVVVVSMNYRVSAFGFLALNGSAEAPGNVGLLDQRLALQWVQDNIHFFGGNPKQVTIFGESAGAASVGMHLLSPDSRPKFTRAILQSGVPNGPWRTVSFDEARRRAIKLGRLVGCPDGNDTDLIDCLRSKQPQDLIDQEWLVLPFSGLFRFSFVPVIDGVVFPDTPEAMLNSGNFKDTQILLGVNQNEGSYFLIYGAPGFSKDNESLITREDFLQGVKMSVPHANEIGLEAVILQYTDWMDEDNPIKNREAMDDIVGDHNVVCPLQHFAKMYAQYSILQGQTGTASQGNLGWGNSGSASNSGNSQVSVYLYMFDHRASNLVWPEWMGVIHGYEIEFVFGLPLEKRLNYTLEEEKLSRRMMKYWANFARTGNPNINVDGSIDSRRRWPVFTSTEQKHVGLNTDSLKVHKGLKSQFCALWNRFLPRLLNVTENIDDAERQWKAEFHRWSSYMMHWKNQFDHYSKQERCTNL

This assay has as its target T1, acetylcholinesterase from electric eel (AChE, E.C. 3.1.1.7, Type V-S) (Electrophorus electricus, UniProt O42275).
T1 construct: purchased Sigma-Aldrich (Steinheim, Germany) Type V-S (catalogue number not given)
The experiment in a line: biochemical. Particulars: Ellman test; IC50 ± SEM; 15 min preincubation at 25°C; pH 8.0; acetylthiocholine iodide substrate; triplicate; read-out: IC50 of in vitro acetylcholinesterase assay. How it is done: Lyophilized powder of acetylcholinesterase from electric eel source (AChE, E.C. 3.1.1.7, Type V-S, 1000 unit) was purchased from Sigma-Aldrich (Steinheim, Germany). 5,5’-Dithiobis-(2-nitrobenzoic acid), potassium dihydrogen phosphate, dipotassium hydrogen phosphate, potassium hydroxide, sodium hydrogen carbonate, and acetylthiocholine iodide were purchased from Fluka (Buchs, Switzerland). […] The Ellman test was carried out for assessment of the anticholinesterase activity of intended compounds in vitro. Prior to use, all solutions were adjusted to 25°C. […] The assay solution consisted of a 0.1 M potassium phosphate buffer pH 8.0, with the addition of 0.01 M 5,50-dithio-bis(2-nitrobenzoic acid), 2.5 unit/mL of enzyme solution (AChE, E.C. 3.1.1.7, Type V-S, lyophilized powder, from electric eel) (Sigma Chemical). […] After rapid and immediate mixing the change of absorption was measured at 412 nm. In order to justify non enzymatic reaction assays were carried out with a blank containing all components except AChE.
The blank reading contained 3 ml buffer, 200 μl water, 100 μl DTNB and 20 μl substrate. The reaction rates were calculated, and the percent inhibition of test compounds was determined. Each concentration was analyzed in triplicate, and IC50 values were determined graphically from inhibition curves (log inhibitor concentration vs percent of inhibition).
A general note: Ellman's reagent forms a yellow product with free thiols.
For orientation: IC50 means the concentration needed to halve the response being measured. As to `O=C1c2ccccc2C(=O)N1CCN1CCN(Cc2ccccc2Cl)CC1` [Compound 4a, 2-(2-(4-(2-Chlorobenzyl)piperazin-1-yl)ethyl)isoindoline-1,3-dione], the IC50 stood at 0.91 ± 0.045 µM. For `O=C1c2ccccc2C(=O)N1CCN1CCN(Cc2cccc(Cl)c2)CC1` [Compound 4b, 2-(2-(4-(3-Chlorobenzyl)piperazin-1-yl)ethyl)isoindoline-1,3-dione], the half-maximal inhibitory concentration (IC50) came out at 85 ± 12 µM. In the case of `O=C1c2ccccc2C(=O)N1CCN1CCN(Cc2ccc(Cl)cc2)CC1` [Compound 4c, 2-(2-(4-(4-Chlorobenzyl)piperazin-1-yl)ethyl)isoindoline-1,3-dione] it was 26 ± 5 µM; in that of `O=C1c2ccccc2C(=O)N1CCN1CCN(Cc2ccccc2F)CC1` [Compound 4d, 2-(2-(4-(2-Fluorobenzyl)piperazin-1-yl)ethyl)isoindoline-1,3-dione], 23 ± 7 µM. In the case of `O=C1c2ccccc2C(=O)N1CCN1CCN(Cc2cccc(F)c2)CC1` [Compound 4e, 2-(2-(4-(3-Fluorobenzyl)piperazin-1-yl)ethyl)isoindoline-1,3-dione] it was 74 ± 11 µM.

As for `O=C1c2ccccc2C(=O)N1CCN1CCN(Cc2ccc(F)cc2)CC1` [Compound 4f, 2-(2-(4-(4-Fluorobenzyl)piperazin-1-yl)ethyl)isoindoline-1,3-dione], the IC50 is 42 ± 8 µM. Regarding `COc1cccc(CN2CCN(CCN3C(=O)c4ccccc4C3=O)CC2)c1` [Compound 4g, 2-(2-(4-(3-Methoxybenzyl)piperazin-1-yl)ethyl)isoindoline-1,3-dione], the IC50 stood at 5.5 ± 0.7 µM. In the case of `COc1ccc(CN2CCN(CCN3C(=O)c4ccccc4C3=O)CC2)cc1` [Compound 4h, 2-(2-(4-(4-Methoxybenzyl)piperazin-1-yl)ethyl)isoindoline-1,3-dione], the IC50 worked out at 72 ± 9 µM. In the case of `O=C1c2ccccc2C(=O)N1CCN1CCN(Cc2ccccc2[N+](=O)[O-])CC1` [Compound 4i, 2-(2-(4-(2-Nitrobenzyl)piperazin-1-yl)ethyl)isoindoline-1,3-dione], the IC50 came to 36 ± 5 µM.

Take `O=C1c2ccccc2C(=O)N1CCN1CCN(Cc2cccc([N+](=O)[O-])c2)CC1` [Compound 4j, 2-(2-(4-(3-Nitrobenzyl)piperazin-1-yl)ethyl)isoindoline-1,3-dione]: the 50% inhibitory concentration (IC50) was 59 ± 6 µM.

Take `O=C1c2ccccc2C(=O)N1CCN1CCN(Cc2ccc([N+](=O)[O-])cc2)CC1` [Compound 4k, 2-(2-(4-(4-Nitrobenzyl)piperazin-1-yl)ethyl)isoindoline-1,3-dione]: the IC50 came to 40 ± 4 µM. Consider `O=C1c2ccccc2C(=O)N1CCN1CCN(Cc2ccccc2)CC1` [Compound 4l, 2-(2-(4-Benzylpiperazin-1-yl)ethyl)isoindoline-1,3-dione], for which the 50% inhibitory concentration (IC50) was 9 ± 2 µM.
